Active and inactive are the calls of the source. The calls are words filed in the database; no cut-off is given here.
Key:
[1] = molecular target: T1, NEDD8 activating enzyme (Homo sapiens) (UniProt Q8TBC4+Q13564); assay: Inhibition of NAE in human HCT-116 cells mediated neddylation assessed as accumulation of p27 incubated for 24 hrs by Western blotting analysis; format: cell-based; conditions: dose <= 1.0 µM, DDE = dose-dependent effect
THP-1 = assay: Antiproliferative activity against human THP-1 cells assessed as cell growth inhibition measured after 72 hrs by SRB assay; format: functional, cell-based; conditions: THP-1, 72 h
[2] = molecular target: T1, NEDD8 activating enzyme (Homo sapiens); assay: Inhibition of NAE in human HCT-116 cells mediated neddylation assessed as accumulation of IkappaBalpha (Ser32/36) incubated for 24 hrs by Western blotting analysis; format: cell-based; conditions: dose <= 1.0 µM, DDE = dose-dependent effect
[3] = molecular target: T1, NEDD8 activating enzyme (Homo sapiens); assay: Inhibition of NAE in human HCT-116 cells mediated neddylation assessed as increase in CHK phosphorylation incubated for 24 hrs by Western blotting analysis; format: cell-based
HCT-116 [4] = assay: Antiproliferative activity against human HCT-116 cells assessed as cell growth inhibition measured after 72 hrs by SRB assay; format: functional, cell-based; conditions: HCT-116, 72 h
[5] = molecular target: T1, NEDD8 activating enzyme (Homo sapiens); assay: Inhibition of NAE in human HCT-116 cells mediated neddylation assessed as accumulation of CDT1 incubated for 24 hrs by Western blotting analysis; format: cell-based; conditions: dose <= 1.0 µM, DDE = dose-dependent effect
HT-29 = assay: Antiproliferative activity against human HT-29 cells assessed as cell growth inhibition measured after 72 hrs by SRB assay; format: functional, cell-based; conditions: HT-29, 72 h
DU-145 = assay: Antiproliferative activity against human DU-145 cells assessed as cell growth inhibition measured after 72 hrs by SRB assay; format: functional, cell-based; conditions: DU-145, 72 h
HCT-116 [6] = assay: Induction of cell cycle arrest in human HCT-116 cells assessed as accumulation of cells at S phase at higher concentration incubated for 24 hrs by PI-staining-based flow cytometry; format: functional
HuTu80 = assay: Antiproliferative activity against human HuTu80 cells assessed as cell growth inhibition measured after 72 hrs by SRB assay; format: functional, cell-based; conditions: HuTu80, 72 h
HCT-116 [7] = assay: Induction of cell cycle arrest in human HCT-116 cells assessed as increase in > 4N cells at higher concentration incubated for 24 hrs by PI-staining-based flow cytometry; format: functional
MV4-11 = assay: Antiproliferative activity against human MV4-11 cells assessed as cell growth inhibition measured after 72 hrs by SRB assay; format: functional, cell-based; conditions: MV4-11, 72 h
[8] = molecular target: Voltage-gated inwardly rectifying potassium channel KCNH2 (Homo sapiens, UniProt Q12809); assay: Inhibition of hERG channel; format: toxicity
[9] = molecular target: T1, NEDD8 activating enzyme (Homo sapiens); assay: Inhibition of NAE in human HuTu80 cells mediated neddylation assessed as increase in CHK phosphorylation incubated for 24 hrs by Western blotting analysis; format: cell-based
CAPAN-1 = assay: Antiproliferative activity against human CAPAN-1 cells assessed as cell growth inhibition measured after 72 hrs by SRB assay; format: functional, cell-based; conditions: CAPAN-1, 72 h
NEDD8 activating enzyme = molecular target: T2, NEDD8 activating enzyme (Homo sapiens, UniProt Q8TBC4); assay: Inhibition of NAE (unknown origin) mediated neddylation assessed as decrease in NEDD8-Ubcl2 adduct formation incubated for 2 hrs in presence of L-glutathione and ATP by HTRF assay; format: protein-complex assay
T2 sequence (Q8TBC4 whole entry): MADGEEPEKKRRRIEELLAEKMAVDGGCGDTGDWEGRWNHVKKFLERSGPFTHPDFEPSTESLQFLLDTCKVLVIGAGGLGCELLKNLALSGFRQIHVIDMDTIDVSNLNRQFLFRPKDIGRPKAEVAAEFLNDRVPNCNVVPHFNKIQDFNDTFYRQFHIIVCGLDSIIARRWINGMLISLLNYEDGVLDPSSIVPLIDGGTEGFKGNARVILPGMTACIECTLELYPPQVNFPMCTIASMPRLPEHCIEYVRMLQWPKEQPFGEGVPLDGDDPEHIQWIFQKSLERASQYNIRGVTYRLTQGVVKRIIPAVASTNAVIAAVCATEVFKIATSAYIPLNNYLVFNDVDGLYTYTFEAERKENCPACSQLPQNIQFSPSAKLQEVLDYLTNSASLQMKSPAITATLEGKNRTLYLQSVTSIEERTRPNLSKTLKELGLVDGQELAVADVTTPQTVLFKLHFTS
T2 sequence (Q13564 whole entry): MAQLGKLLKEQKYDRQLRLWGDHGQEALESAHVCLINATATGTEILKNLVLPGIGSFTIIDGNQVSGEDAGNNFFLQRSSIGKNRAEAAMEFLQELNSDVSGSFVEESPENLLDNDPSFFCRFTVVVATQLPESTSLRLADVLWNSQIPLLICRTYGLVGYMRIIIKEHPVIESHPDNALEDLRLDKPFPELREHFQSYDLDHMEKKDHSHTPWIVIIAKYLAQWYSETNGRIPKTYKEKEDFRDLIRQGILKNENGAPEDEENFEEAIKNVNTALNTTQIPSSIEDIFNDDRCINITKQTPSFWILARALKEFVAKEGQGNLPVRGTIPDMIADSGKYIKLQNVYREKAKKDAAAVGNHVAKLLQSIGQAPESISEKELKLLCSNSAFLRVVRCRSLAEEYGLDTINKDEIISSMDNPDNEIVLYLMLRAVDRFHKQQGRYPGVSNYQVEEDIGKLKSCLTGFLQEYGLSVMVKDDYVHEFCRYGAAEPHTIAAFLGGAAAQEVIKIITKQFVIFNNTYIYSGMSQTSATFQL

HCT-116 [10] = assay: Antiproliferative activity against human HCT-116 cells assessed as cell growth inhibition by sulforhodamine B assay; format: functional, cell-based
LNCaP-Clone-FGC = assay: Antiproliferative activity against human LNCaP-Clone-FGC cells assessed as cell growth inhibition measured after 72 hrs by SRB assay; format: functional, cell-based
RKO = assay: Antiproliferative activity against human RKO cells assessed as cell growth inhibition measured after 72 hrs by SRB assay; format: functional, cell-based
[11] = Observed MRTinfinity in Sprague-Dawley rat at 1 mg/kg, iv; format: ADME, organism-based; conditions: in vivo
[12] = Observed AUCinfinity in Sprague-Dawley rat at 1 mg/kg, iv; format: ADME, organism-based; parameters: time infinity, dose 1 mg/kg, route iv; conditions: in vivo
[13] = Inhibition of UAE (unknown origin) […] assessed as decrease in UbcH10-Ub adduct formation incubated for 2 hrs in presence of L-glutathione and ATP by HTRF assay; parameters: species or system Homo sapiens
HCT-116 [14] = assay: Induction of apoptosis in human HCT-116 cells assessed as increase in cleaved caspase-7 level upto 1 uM incubated for 48 hrs by Western blot analysis; format: functional, cell-based
HCT-116 [15] = assay: Induction of apoptosis in human HCT-116 cells assessed as increase in cleaved PARP1 level upto 1 uM incubated for 48 hrs by Western blot analysis; format: functional, cell-based
HCT-116 [16] = assay: Antitumor activity against human HCT-116 cells xenografted in nude mouse assessed as reduction in tumor growth at 130 mg/kg, sc qd for upto 18 days; format: functional; conditions: time <= 18 day
[17] = molecular target: T1, NEDD8 activating enzyme (Homo sapiens); assay: Inhibition of NAE in human HCT-116 cells mediated neddylation assessed as accumulation of gamma-H2AX incubated for 24 hrs by Western blotting analysis; format: cell-based
HCT-116 [18] = assay: Induction of cell cycle arrest in human HCT-116 cells assessed as accumulation of cells at G2/M phase incubated for 24 hrs by PI-staining-based flow cytometry; format: functional
[19] = Volume of distribution at steady state in Sprague-Dawley rat at 1 mg/kg, iv; format: ADME, organism-based; conditions: in vivo, read-out: Vdss
[20] = molecular target: T1, NEDD8 activating enzyme (Homo sapiens); assay: Inhibition of NAE in human HuTu80 cells mediated neddylation assessed as accumulation of gamma-H2AX incubated for 24 hrs by Western blotting analysis; format: cell-based
[21] = AUClast in Sprague-Dawley rat at 1 mg/kg, iv; format: ADME, organism-based; parameters: time 0 - last, dose 1 mg/kg, route iv; conditions: in vivo
[22] = Half life in Sprague-Dawley rat at 1 mg/kg, iv; format: ADME, organism-based; conditions: in vivo
HCT-116 [23] = assay: Induction of apoptosis in human HCT-116 cells assessed as increase in cleaved caspase-3 level upto 1 uM incubated for 48 hrs by Western blot analysis; format: functional, cell-based
[24] = Clearance in Sprague-Dawley rat at 1 mg/kg, iv; format: ADME, organism-based; conditions: in vivo
[25] = Toxicity in nude mouse xenografted with human HCT-116 cells assessed as effect on body weight at 65 to 130 mg/kg, sc qd for upto 18 days; format: organism-based; conditions: in vivo, 432 h, dose 65-130 mg/kg, time < 18 day
[26] = molecular target: T1, NEDD8 activating enzyme (Homo sapiens); assay: Inhibition of NAE in human HuTu80 cells mediated neddylation assessed as accumulation of p21 incubated for 24 hrs by Western blotting analysis; format: cell-based; conditions: dose <= 1.0 µM, DDE = dose-dependent effect
[27] = molecular target: T1, NEDD8 activating enzyme (Homo sapiens); assay: Inhibition of NAE in human HuTu80 cells mediated neddylation assessed as accumulation of IkappaBalpha (Ser32/36) incubated for 24 hrs by Western blotting analysis; format: cell-based; conditions: dose <= 1.0 µM, DDE = dose-dependent effect
[28] = molecular target: T1, NEDD8 activating enzyme (Homo sapiens); assay: Inhibition of NAE in human HuTu80 cells mediated neddylation assessed as accumulation of p27 incubated for 24 hrs by Western blotting analysis; format: cell-based; conditions: dose <= 1.0 µM, DDE = dose-dependent effect
[29] = molecular target: T1, NEDD8 activating enzyme (Homo sapiens); assay: Inhibition of NAE in human HuTu80 cells mediated neddylation assessed as accumulation of CDT1 incubated for 24 hrs by Western blotting analysis; format: cell-based; conditions: dose <= 1.0 µM, DDE = dose-dependent effect
[30] = molecular target: T1, NEDD8 activating enzyme (Homo sapiens); assay: Inhibition of NAE in human HCT-116 cells mediated neddylation assessed as accumulation of p21 incubated for 24 hrs by Western blotting analysis; format: cell-based; conditions: dose <= 1.0 µM, DDE = dose-dependent effect
Jurkat = assay: Antiproliferative activity against human Jurkat cells assessed as cell growth inhibition measured after 72 hrs by SRB assay; format: functional, cell-based

Voltage-gated inwardly rectifying potassium channel KCNH2, sequence (Q12809 whole entry): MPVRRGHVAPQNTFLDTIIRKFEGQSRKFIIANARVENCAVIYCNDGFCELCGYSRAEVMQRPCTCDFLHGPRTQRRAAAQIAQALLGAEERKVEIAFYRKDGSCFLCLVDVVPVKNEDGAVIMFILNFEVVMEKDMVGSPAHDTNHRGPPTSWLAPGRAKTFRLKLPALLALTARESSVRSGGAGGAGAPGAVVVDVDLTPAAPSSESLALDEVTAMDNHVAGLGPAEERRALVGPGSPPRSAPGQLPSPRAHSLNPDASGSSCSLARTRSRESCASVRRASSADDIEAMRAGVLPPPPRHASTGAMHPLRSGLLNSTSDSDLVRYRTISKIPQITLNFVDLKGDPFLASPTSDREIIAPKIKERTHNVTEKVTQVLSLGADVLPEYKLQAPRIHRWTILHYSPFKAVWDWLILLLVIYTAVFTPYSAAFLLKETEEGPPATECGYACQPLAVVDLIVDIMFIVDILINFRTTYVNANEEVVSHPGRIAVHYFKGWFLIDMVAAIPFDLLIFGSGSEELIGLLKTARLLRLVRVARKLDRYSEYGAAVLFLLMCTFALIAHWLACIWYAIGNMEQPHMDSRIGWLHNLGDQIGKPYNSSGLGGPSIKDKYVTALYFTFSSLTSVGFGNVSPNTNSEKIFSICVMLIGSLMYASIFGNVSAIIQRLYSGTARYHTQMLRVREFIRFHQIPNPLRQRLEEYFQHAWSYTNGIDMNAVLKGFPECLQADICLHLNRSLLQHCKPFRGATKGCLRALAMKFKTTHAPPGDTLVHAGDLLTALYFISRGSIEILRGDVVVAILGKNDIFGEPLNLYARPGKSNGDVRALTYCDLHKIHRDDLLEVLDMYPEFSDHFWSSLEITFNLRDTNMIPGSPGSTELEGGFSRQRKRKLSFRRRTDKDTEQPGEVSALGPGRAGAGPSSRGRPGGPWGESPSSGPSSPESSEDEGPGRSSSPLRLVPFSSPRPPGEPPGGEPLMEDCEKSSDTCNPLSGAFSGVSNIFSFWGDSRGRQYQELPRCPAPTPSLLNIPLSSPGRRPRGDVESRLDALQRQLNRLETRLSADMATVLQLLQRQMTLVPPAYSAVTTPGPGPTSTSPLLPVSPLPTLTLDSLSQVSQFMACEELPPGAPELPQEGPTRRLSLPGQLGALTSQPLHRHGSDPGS

inhibition [1]: Dde
IC50 (THP-1): 0.353 µM
inhibition [2]: Dde
inhibition [3]: Active
IC50 (HCT-116 [4]): 0.0339 µM
inhibition [5]: Dde
IC50 (HT-29): 0.407 µM
IC50 (DU-145): 0.482 µM
IC50 (MV4-11): 0.106 µM
inhibition [9]: Active
IC50 (NEDD8 activating enzyme): 0.00055 µM
IC50 (HCT-116 [10]): 0.0362 µM
IC50 (LNCaP-Clone-FGC): 0.264 µM
MRT inf [11]: 60 min
AUC(0-inf) [12]: 0.563 µg·h/mL
IC50 [13]: 0.0668 µM
inhibition [17]: Active
Vd [19]: 1.78 L/kg
inhibition [20]: Active
AUC(0-t) [21]: 0.56 µg·h/mL
half-life [22]: 42.6 min
clearance [24]: 1.78 L/h/kg
inhibition [26]: Dde
inhibition [27]: Dde
inhibition [28]: Dde
inhibition [29]: Dde
inhibition [30]: Dde
IC50 (Jurkat): 0.482 µM
SMILES: COC(=O)N1CCC2(CC1)C[C@H](Nc1ncnc3c1nnn3[C@@H]1C[C@@H](COS(N)(=O)=O)[C@@H](O)C1)c1ccccc12
Activity (HCT-116 [6]): Active
IC50 (HuTu80): 0.04 µM
Activity (HCT-116 [7]): Active
IC50 [8]: > 40 µM
IC50 (CAPAN-1): 0.101 µM
IC50 (RKO): 0.286 µM
Activity (HCT-116 [14]): Active
Activity (HCT-116 [15]): Active
T/C (HCT-116 [16]): 0.19
Activity (HCT-116 [18]): Active
Activity (HCT-116 [23]): Active
Activity [25]: Non-Toxic

Source: ChEMBL document CHEMBL5149982, “Development of Potent NEDD8-Activating Enzyme Inhibitors Bearing a Pyrimidotriazole Scaffold” (J Med Chem, 2021)
